Source: patent US10508086B2 (CANCER RESEARCH TECHNOLOGY LIMITED, priority 2014, dated 2019)

Molecular target: Human Full Length PARG (Homo sapiens (Human), UniProt Q86W56)
Assay: PARG in vitro enzyme assay (TR-FRET)
Type: biochemical
Details: read-out: PARG_EC50_ENZYME
Experimental: PARG In vitro assays were conducted in a total volume of 15 ul in a standard 384 well format. 5 ul of Human Full Length PARG (Produced internally by Astra Zeneca), used at a final reaction concentration of […], was added to 5 ul of Ribosylated PARP substrate (also produced internally by Astra Zeneca) at final reaction concentration of 4.5 nM in assay buffer (50 mM Tris pH7.4, 0.1 mg/ml BSA, 3 mM EDTA, 0.4 mM EGTA, 1 mM DTT, 0.01% Tween 20, 50 mM KCl). The reaction was incubated at room temperature for 10 minutes and then 5 ul detection reagent was added. Detection Reagent consists of 42 nM MAb Anti-6HIS XL665 (CisBio: 61 HISXLB) and 2.25 nM Streptavidin Europium Cryptate (CisBio: 610SAKLB), both at 3× working stock concentrations (final concentrations of 14 nM and 0.75 nM respectively), in a detection buffer of 50 mM Tris pH7.4, BSA at 0.1 mg/ml and KF at 100 mM. Following incubation at room temperature for 60 minutes in the dark, TR-FRET signal was measured at Ex 340 and Em 665 and Em 620. A ratio was calculated as Em665/EM620×104 for each well and used to calculate percent inhibition for test compounds.

Sequence of Human Full Length PARG (Q86W56 whole entry): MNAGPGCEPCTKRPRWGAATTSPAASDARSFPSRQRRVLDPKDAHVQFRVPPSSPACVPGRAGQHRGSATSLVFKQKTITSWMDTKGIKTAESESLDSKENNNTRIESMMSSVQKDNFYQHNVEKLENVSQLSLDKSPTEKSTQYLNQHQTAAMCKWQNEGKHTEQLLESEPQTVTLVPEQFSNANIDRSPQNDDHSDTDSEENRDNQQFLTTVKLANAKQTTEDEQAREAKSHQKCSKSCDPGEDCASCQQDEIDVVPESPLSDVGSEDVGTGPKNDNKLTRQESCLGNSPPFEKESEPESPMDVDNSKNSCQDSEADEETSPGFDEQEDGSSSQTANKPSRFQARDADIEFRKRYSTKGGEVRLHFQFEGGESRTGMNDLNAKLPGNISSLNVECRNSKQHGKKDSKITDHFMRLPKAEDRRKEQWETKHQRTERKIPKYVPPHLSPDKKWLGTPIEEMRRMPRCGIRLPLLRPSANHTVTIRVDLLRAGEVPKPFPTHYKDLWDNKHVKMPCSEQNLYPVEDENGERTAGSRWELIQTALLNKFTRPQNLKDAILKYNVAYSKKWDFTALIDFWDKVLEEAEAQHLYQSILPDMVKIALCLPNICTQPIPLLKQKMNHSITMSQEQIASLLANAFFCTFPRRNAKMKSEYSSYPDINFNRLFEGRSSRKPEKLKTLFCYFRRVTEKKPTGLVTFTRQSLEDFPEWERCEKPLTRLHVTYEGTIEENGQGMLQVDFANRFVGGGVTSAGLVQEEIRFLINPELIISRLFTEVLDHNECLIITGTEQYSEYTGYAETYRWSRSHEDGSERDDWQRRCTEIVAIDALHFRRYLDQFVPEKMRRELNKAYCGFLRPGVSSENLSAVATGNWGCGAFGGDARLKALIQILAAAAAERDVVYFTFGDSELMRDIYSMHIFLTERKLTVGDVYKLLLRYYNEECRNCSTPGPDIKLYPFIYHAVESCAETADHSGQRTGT

| EC50 | Compound |
| --- | --- |
| 5 µM | Cn1c(=O)n(CC2CC2)c2ccc(S(=O)(=O)NC3(C)CC3)cc21 [Example 2] |
| 8.28 µM | Cn1c(=O)n(Cc2ccccc2)c2ccc(S(=O)(=O)NC3(C)CC3)cc21 [Example 3] |
| 6.76 µM | Cn1c(=O)n(Cc2cccnc2)c2ccc(S(=O)(=O)NC3(C)CC3)cc21 [Example 5] |
| 8.32 µM | Cn1c(=O)n(CC2CC2(F)F)c2ccc(S(=O)(=O)NC3(C)CC3)cc21 (stereo not drawn) [Example 6] |
| 9.79 µM | CC(C)Cn1c(=O)n(C)c2cc(S(=O)(=O)NC3(C)CC3)ccc21 [Example 7] |
| 4.51 µM | CC1CC1Cn1c(=O)n(C)c2cc(S(=O)(=O)NC3(C)CC3)ccc21 (stereo not drawn) [Example 8] |
| 4.04 µM | Cn1c(=O)n(CC2(C)CC2)c2ccc(S(=O)(=O)NC3(C)CC3)cc21 [Example 9] |
| 8.42 µM | Cn1c(=O)n(CC2(C)COC2)c2ccc(S(=O)(=O)NC3(C)CC3)cc21 [Example 10] |
| 4.67 µM | Cn1c(=O)n(CC2CCC2)c2ccc(S(=O)(=O)NC3(C)CC3)cc21 [Example 11] |
| 8.29 µM | Cn1c(=O)n(CC2CCCCC2)c2ccc(S(=O)(=O)NC3(C)CC3)cc21 [Example 12] |
| 7.12 µM | Cn1c(=O)n(Cc2ccncc2)c2ccc(S(=O)(=O)NC3(C)CC3)cc21 [Example 13] |
| 6.59 µM | Cn1c(=O)n(CC(C)(C)C)c2ccc(S(=O)(=O)NC3(C)CC3)cc21 [Example 15] |
| 3.39 µM | Cn1c(=O)n(CC2CCCC2)c2ccc(S(=O)(=O)NC3(C)CC3)cc21 [Example 16] |
| 4.78 µM | C#CCn1c(=O)n(C)c2cc(S(=O)(=O)NC3(C)CC3)ccc21 [Example 17] |
| 7.56 µM | C=CCn1c(=O)n(C)c2cc(S(=O)(=O)NC3(C)CC3)ccc21 [Example 18] |
| 5.36 µM | Cn1c(=O)n(CCC2CC2)c2ccc(S(=O)(=O)NC3(C)CC3)cc21 [Example 19] |
| 3.5 µM | Cc1ccc(Cn2c(=O)n(C)c3cc(S(=O)(=O)NC4(C)CC4)ccc32)o1 [Example 20] |
| 9.18 µM | CC(=O)OCCn1c(=O)n(C)c2cc(S(=O)(=O)NC3(C)CC3)ccc21 [Example 22] |

| EC50 | Compound |
| --- | --- |
| 8.83 µM | Cn1ccc(Cn2c(=O)n(C)c3cc(S(=O)(=O)NC4(C)CC4)ccc32)n1 [Example 23] |
| 2.8 µM | CC(=O)n1c(=O)n(C)c2ccc(S(=O)(=O)NC3(C)CC3)cc21 [Example 24] |
| 6.86 µM | CCNC(=O)n1c(=O)n(C)c2ccc(S(=O)(=O)NC3(C)CC3)cc21 [Example 32] |
| 6.31 µM | Cc1cccc(Cn2c(=O)n(C)c3cc(S(=O)(=O)NC4(C)CC4)ccc32)c1 [Example 33] |
| 6.21 µM | Cc1ccc(Cn2c(=O)n(C)c3cc(S(=O)(=O)NC4(C)CC4)ccc32)cc1 [Example 34] |
| 5.71 µM | Cn1c(=O)n(Cc2cccc(Cl)c2)c2ccc(S(=O)(=O)NC3(C)CC3)cc21 [Example 38] |
| 3.74 µM | Cn1c(=O)n(Cc2ccc(Cl)cc2)c2ccc(S(=O)(=O)NC3(C)CC3)cc21 [Example 39] |
| 6.3 µM | Cn1c(=O)n(Cc2ccccc2F)c2ccc(S(=O)(=O)NC3(C)CC3)cc21 [Example 40] |
| 5.77 µM | Cn1c(=O)n(Cc2cccc(F)c2)c2ccc(S(=O)(=O)NC3(C)CC3)cc21 [Example 41] |
| 2.35 µM | Cn1c(=O)n(Cc2ccc(F)cc2)c2ccc(S(=O)(=O)NC3(C)CC3)cc21 [Example 42] |
| 7.83 µM | Cn1c(=O)n(Cc2cc(Cl)cc(Cl)c2)c2ccc(S(=O)(=O)NC3(C)CC3)cc21 [Example 48] |
| 5.07 µM | Cc1cc(C)cc(Cn2c(=O)n(C)c3cc(S(=O)(=O)NC4(C)CC4)ccc32)c1 [Example 49] |
| 5.26 µM | Cn1c(=O)n(Cc2cc(F)cc(F)c2)c2ccc(S(=O)(=O)NC3(C)CC3)cc21 [Example 51] |
| 7.05 µM | CNC(=O)n1c(=O)n(C)c2ccc(S(=O)(=O)NC3(C)CC3)cc21 [Example 55] |
| 5.9 µM | Cn1c(=O)n(Cc2ccc([N+](=O)[O-])o2)c2ccc(S(=O)(=O)NC3(C)CC3)cc21 [Example 62] |
| 8.5 µM | Cn1nccc1Cn1c(=O)n(C)c2cc(S(=O)(=O)NC3(C)CC3)ccc21 [Example 64] |
| 9.8 µM | Cc1ncc(Cn2c(=O)n(C)c3cc(S(=O)(=O)NC4(C)CC4)ccc32)s1 [Example 65] |
| 1.35 µM | CCOC(=O)n1c(=O)n(C)c2ccc(S(=O)(=O)NC3(C)CC3)cc21 [Example 66] |

More lines, now with the values behind:

| Compound | EC50 |
| --- | --- |
| Cn1c(=O)n(Cc2c(Cl)cccc2Cl)c2ccc(S(=O)(=O)NC3(C)CC3)cc21 [Example 1] | 9.41 µM |
| CC1(NS(=O)(=O)c2ccc3c(c2)n(-c2ccccc2)c(=O)n3CC2CC2)CC1 [Example 4] | 2.91 µM |
| CC1(NS(=O)(=O)c2ccc3c(c2)N(C(=O)CN2CCNC2=O)CC3)CC1 [Example 21, N-(1-Methylcyclopropyl)-1-[2-(2-oxoimidazolidin-1-yl)acetyl]indoline-6-sulfonamide] | 5.23 µM |
| CN1CCN(CC(=O)N2CCc3ccc(S(=O)(=O)NC4(C)CC4)cc32)C1=O [Example 25, N-(1-Methylcyclopropyl)-1-[2-(3-methyl-2-oxo-imidazolidin-1-yl)acetyl]indoline-6-sulfonamide] | 8.92 µM |
| Cn1c(=O)n(-c2ccsc2)c2cc(S(=O)(=O)NC3(C)CC3)ccc21 [Example 26] | 6.99 µM |
| Cn1c(=O)n(C(=O)c2ccccc2)c2cc(S(=O)(=O)NC3(C)CC3)ccc21 [Example 27] | 0.925 µM |
| Cn1c(=O)n(C(=O)C2CCCCC2)c2cc(S(=O)(=O)NC3(C)CC3)ccc21 [Example 28] | 0.352 µM |
| Cc1ccc(C(=O)n2c(=O)n(C)c3ccc(S(=O)(=O)NC4(C)CC4)cc32)cc1 [Example 29] | 4.46 µM |
| Cc1cccc(C(=O)n2c(=O)n(C)c3ccc(S(=O)(=O)NC4(C)CC4)cc32)c1 [Example 30] | 9.57 µM |
| Cc1ccccc1C(=O)n1c(=O)n(C)c2ccc(S(=O)(=O)NC3(C)CC3)cc21 [Example 31] | 4.91 µM |
| COc1ccccc1Cn1c(=O)n(C)c2cc(S(=O)(=O)NC3(C)CC3)ccc21 [Example 35] | 7.69 µM |
| COc1cccc(Cn2c(=O)n(C)c3cc(S(=O)(=O)NC4(C)CC4)ccc32)c1 [Example 36] | 6.17 µM |
| COc1ccc(Cn2c(=O)n(C)c3cc(S(=O)(=O)NC4(C)CC4)ccc32)cc1 [Example 37] | 3.15 µM |
| Cn1c(=O)n(Cc2ccccc2C#N)c2ccc(S(=O)(=O)NC3(C)CC3)cc21 [Example 43] | 5.25 µM |
| Cn1c(=O)n(Cc2cccc(C#N)c2)c2ccc(S(=O)(=O)NC3(C)CC3)cc21 [Example 44] | 3.35 µM |
| Cn1c(=O)n(Cc2ccc(C#N)cc2)c2ccc(S(=O)(=O)NC3(C)CC3)cc21 [Example 45] | 3.2 µM |
| Cn1c(=O)n(Cc2ccccc2C(F)(F)F)c2ccc(S(=O)(=O)NC3(C)CC3)cc21 [Example 46] | 9.75 µM |

| Compound | EC50 |
| --- | --- |
| Cn1c(=O)n(Cc2c(F)cccc2F)c2ccc(S(=O)(=O)NC3(C)CC3)cc21 [Example 47] | 5.72 µM |
| COc1cc(Cn2c(=O)n(C)c3cc(S(=O)(=O)NC4(C)CC4)ccc32)cc(OC)c1 [Example 50] | 4.91 µM |
| Cn1c(=O)n(-c2ccco2)c2cc(S(=O)(=O)NC3(C)CC3)ccc21 [Example 52] | 5.16 µM |
| Cn1c(=O)n(-c2nccs2)c2cc(S(=O)(=O)NC3(C)CC3)ccc21 [Example 53] | 2.86 µM |
| Cn1c(=O)n(-c2ccc(C=O)s2)c2cc(S(=O)(=O)NC3(C)CC3)ccc21 [Example 54] | 9.07 µM |
| Cn1c(=O)n(C)c2cc(S(=O)(=O)NC3(C)CC3)c(F)cc21 [Example 56, 6-Fluoro-1,3-dimethyl-N-(1-methylcyclopropyl)-2-oxo-benzimidazole-5-sulfonamide] | 8.3 µM |
| Cn1c(=O)n(-c2ccccc2)c2ccc(S(=O)(=O)NC3(C)CC3)cc21 [Example 57] | 5.63 µM |
| Cn1c(=O)n(Cc2ccc(C#N)c(F)c2)c2ccc(S(=O)(=O)NC3(C)CC3)cc21 [Example 58] | 4.65 µM |
| Cn1c(=O)n(Cc2ccc(C(N)=O)cc2)c2ccc(S(=O)(=O)NC3(C)CC3)cc21 [Example 59] | 2.66 µM |
| CNC(=O)c1noc(Cn2c(=O)n(C)c3cc(S(=O)(=O)NC4(C)CC4)ccc32)n1 [Example 60] | 5.96 µM |
| Cn1c(=O)n(Cc2cccc(C(N)=O)c2)c2ccc(S(=O)(=O)NC3(C)CC3)cc21 [Example 61] | 6.06 µM |
| CC(=O)Nc1ccc(Cn2c(=O)n(C)c3cc(S(=O)(=O)NC4(C)CC4)ccc32)cc1 [Example 63] | 4.17 µM |
| Cn1c(=O)n(-c2ccc(/C=C/C(=O)O)o2)c2cc(S(=O)(=O)NC3(C)CC3)ccc21 [Example 67, (E)-3-[5-[3-Methyl-6-[(1-methylcyclopropyl)sulfamoyl]-2-oxo-benzimidazol-1-yl]-2-furyl]prop-2-enoic acid] | 4.45 µM |
| Cc1nnc(-n2c(=O)n(C)c3ccc(S(=O)(=O)NC4(C)CC4)cc32)s1 [Example 68] | 0.902 µM |
| Cn1c(=O)n(-c2ncc(/C=C/C(=O)O)s2)c2cc(S(=O)(=O)NC3(C)CC3)ccc21 [Example 69, (E)-3-[2-[3-methyl-6-[(1-methylcyclopropyl)sulfamoyl]-2-oxo-benzimidazol-1-yl]thiazol-5-yl]prop-2-enoic acid] | 3.21 µM |
| Cn1c(=O)n(-c2ncc(CCC(=O)O)s2)c2cc(S(=O)(=O)NC3(C)CC3)ccc21 [Example 70, 3-[2-[3-Methyl-6-[(1-methylcyclopropyl)sulfamoyl]-2-oxo-benzimidazol-1-yl]thiazol-5-yl]propanoic acid] | 0.804 µM |
